Reference: article PMC7664637, “In Vitro and In Silico Evaluation of Anticancer Activity of New Indole-Based 1,3,4-Oxadiazoles as EGFR and COX-2 Inhibitors” (Molecules, 2020)

Experiments:
HCT116 cells = test: Detection of cell death, Hoechst 33342/annexin V/ethidium homodimer III staining; format: cell-based, human; conditions: 10 μM, 12 h
Method: The cells were then briefly washed twice with 1× binding buffer, a staining solution containing 50 μL of 1× binding buffer, 5 μL of FITC-Annexin V solution, 5 μL of ethidium homodimer III solution, and 5 μL of Hoechst 33342 solution and incubated for 15 min at room temperature in the dark. Then, cells were washed with 1× binding buffer and analyzed by a Biorevo Fluorescence BZ-9000 all-in-one fluorescence microscope (Keyence, Osaka, Japan). Numbers of healthy cells (Hoechst 33342), apoptotic cells (Annexin V), late apoptotic or necrotic cells (Annexin V and Ethidium homodimer III), and necrotic cells (Ethidium homodimer III) were counted, as previously described.
(B) A total of approximately 100 stained cells were selected randomly in each experiment of (A) and were classified into 4 types: “alive” (blue), “apoptosis” (green), “necrosis or late apoptosis” (both green and red), and “necrosis” (red). […] Data from three independent experiments are shown as means ± standard deviations and p values were determined using Student’s test.

[1] = tested on: A549 human lung adenocarcinoma cell line; test: MTT cytotoxicity assay, A549; conditions: A549, 48 h, read-out: IC50 A549 Cell Line
Method: (§2) At the end of this period, supernatants were removed, and 100 μL DMSO was added to each well to solubilize the formazan crystals. The absorbance of the solution was determined on an Infinite M1000 plate reader (Tecan, Mannedorf, Switzerland) at a wavelength of 550 nm with background subtraction at 630 nm.

[2] = tested on: A375 human melanoma cell line; test: MTT cytotoxicity assay, A375; conditions: A-375, 48 h, read-out: IC50 A375 Cell Line
Method: as §2

[3] = tested on: peripheral blood mononuclear cells (PBMCs); test: MTT cytotoxicity assay, PBMCs (tumor selectivity); conditions: Homo sapiens, PBMC, 48 h, read-out: IC50 PBMCs
Method: as §2

[4] = tested on: Jurkat human leukemic T-cells; test: MTT cytotoxicity assay, Jurkat cells (tumor selectivity); conditions: 48 h, read-out: IC50 Jurkat Cells
Method: as §2

[5] = tested on: HCT116 human colorectal carcinoma cell line; test: MTT cytotoxicity assay, HCT116; conditions: HCT-116, 48 h, read-out: IC50 HCT-116 Cell Line
Method: as §2

EGFR = biological target: T1, EGFR (Homo sapiens, UniProt P00533); test: Kinase profiling assay (ADP-Glo), EGFR; format: biochemical; conditions: 1 h, room temperature
T1 construct: purchased Promega Corporation
Method: (§1) The kinase profiling assay protocol was applied according to the manufacturer’s instructions (Promega Corporation, Madison, WI, USA) with modification. […] Then, the reaction of the kinase was performed using 2 µL of compound solution at varying concentrations (0.1–100 µM), 4 µL of kinase working stock, and 4 µL of ATP/substrate working stock in the 384-well plate. After 1 h of incubation at room temperature, the activity of kinase was detected using ADP-Glo kinase assay (Promega Corporation, Madison, WI, USA), and kinase inhibitory activity of compounds in dose–response mode was measured by an Infinite M1000 luminescence plate reader (Tecan, Groding, Austria).

HER2 = biological target: T2, HER2 (Homo sapiens, UniProt P04626); test: Kinase profiling assay (ADP-Glo), HER2; format: biochemical; conditions: 1 h, room temperature
T2 construct: purchased Promega Corporation
Method: as §1

HER4 = biological target: T3, HER4 (Homo sapiens, UniProt Q15303); test: Kinase profiling assay (ADP-Glo), HER4; format: biochemical; conditions: 1 h, room temperature
T3 construct: purchased Promega Corporation
Method: as §1

IGF1R = biological target: T4, IGF1R (Homo sapiens, UniProt P08069); test: Kinase profiling assay (ADP-Glo), IGF1R; format: biochemical; conditions: 1 h, room temperature
T4 construct: purchased Promega Corporation
Method: as §1

InsR = biological target: T5, InsR (Homo sapiens, UniProt P06213); test: Kinase profiling assay (ADP-Glo), InsR; format: biochemical; conditions: 1 h, room temperature
T5 construct: purchased Promega Corporation
Method: as §1

KDR = biological target: T6, KDR (Homo sapiens, UniProt P35968); test: Kinase profiling assay (ADP-Glo), KDR; format: biochemical; conditions: 1 h, room temperature
T6 construct: purchased Promega Corporation
Method: as §1

PDGFRα = biological target: T7, PDGFRα (Homo sapiens, UniProt P16234); test: Kinase profiling assay (ADP-Glo), PDGFRα; format: biochemical; conditions: 1 h, room temperature
T7 construct: purchased Promega Corporation
Method: as §1

PDGFRβ = biological target: T8, PDGFRβ (Homo sapiens, UniProt P09619); test: Kinase profiling assay (ADP-Glo), PDGFRβ; format: biochemical; conditions: 1 h, room temperature
T8 construct: purchased Promega Corporation
Method: as §1

COX-1 = biological target: T9, COX-1 (Ovis aries, UniProt P05979); test: In vitro COX inhibition assay (COX (ovine/human) inhibitor screening kit), COX-1
T9 sequence (P05979 25-600): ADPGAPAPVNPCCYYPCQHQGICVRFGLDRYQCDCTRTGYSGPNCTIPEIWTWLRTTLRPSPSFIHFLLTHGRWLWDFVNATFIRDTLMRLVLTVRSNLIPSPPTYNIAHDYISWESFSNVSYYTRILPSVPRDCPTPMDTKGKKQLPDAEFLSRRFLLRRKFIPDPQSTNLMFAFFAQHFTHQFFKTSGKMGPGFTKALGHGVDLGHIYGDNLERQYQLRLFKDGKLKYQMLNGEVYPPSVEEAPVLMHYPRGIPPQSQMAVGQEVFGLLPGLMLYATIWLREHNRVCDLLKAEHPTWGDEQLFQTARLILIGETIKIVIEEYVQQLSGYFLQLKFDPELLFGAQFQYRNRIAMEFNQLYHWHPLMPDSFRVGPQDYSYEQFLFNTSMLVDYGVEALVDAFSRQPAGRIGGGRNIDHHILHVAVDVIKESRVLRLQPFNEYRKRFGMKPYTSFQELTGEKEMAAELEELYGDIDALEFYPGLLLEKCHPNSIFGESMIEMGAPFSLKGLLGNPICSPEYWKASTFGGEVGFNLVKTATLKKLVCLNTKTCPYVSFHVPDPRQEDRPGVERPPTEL
Method: Briefly, COX reactions were performed. […] The prostaglandins were quantified by ELISA.

T5 sequence (P06213 28-1382): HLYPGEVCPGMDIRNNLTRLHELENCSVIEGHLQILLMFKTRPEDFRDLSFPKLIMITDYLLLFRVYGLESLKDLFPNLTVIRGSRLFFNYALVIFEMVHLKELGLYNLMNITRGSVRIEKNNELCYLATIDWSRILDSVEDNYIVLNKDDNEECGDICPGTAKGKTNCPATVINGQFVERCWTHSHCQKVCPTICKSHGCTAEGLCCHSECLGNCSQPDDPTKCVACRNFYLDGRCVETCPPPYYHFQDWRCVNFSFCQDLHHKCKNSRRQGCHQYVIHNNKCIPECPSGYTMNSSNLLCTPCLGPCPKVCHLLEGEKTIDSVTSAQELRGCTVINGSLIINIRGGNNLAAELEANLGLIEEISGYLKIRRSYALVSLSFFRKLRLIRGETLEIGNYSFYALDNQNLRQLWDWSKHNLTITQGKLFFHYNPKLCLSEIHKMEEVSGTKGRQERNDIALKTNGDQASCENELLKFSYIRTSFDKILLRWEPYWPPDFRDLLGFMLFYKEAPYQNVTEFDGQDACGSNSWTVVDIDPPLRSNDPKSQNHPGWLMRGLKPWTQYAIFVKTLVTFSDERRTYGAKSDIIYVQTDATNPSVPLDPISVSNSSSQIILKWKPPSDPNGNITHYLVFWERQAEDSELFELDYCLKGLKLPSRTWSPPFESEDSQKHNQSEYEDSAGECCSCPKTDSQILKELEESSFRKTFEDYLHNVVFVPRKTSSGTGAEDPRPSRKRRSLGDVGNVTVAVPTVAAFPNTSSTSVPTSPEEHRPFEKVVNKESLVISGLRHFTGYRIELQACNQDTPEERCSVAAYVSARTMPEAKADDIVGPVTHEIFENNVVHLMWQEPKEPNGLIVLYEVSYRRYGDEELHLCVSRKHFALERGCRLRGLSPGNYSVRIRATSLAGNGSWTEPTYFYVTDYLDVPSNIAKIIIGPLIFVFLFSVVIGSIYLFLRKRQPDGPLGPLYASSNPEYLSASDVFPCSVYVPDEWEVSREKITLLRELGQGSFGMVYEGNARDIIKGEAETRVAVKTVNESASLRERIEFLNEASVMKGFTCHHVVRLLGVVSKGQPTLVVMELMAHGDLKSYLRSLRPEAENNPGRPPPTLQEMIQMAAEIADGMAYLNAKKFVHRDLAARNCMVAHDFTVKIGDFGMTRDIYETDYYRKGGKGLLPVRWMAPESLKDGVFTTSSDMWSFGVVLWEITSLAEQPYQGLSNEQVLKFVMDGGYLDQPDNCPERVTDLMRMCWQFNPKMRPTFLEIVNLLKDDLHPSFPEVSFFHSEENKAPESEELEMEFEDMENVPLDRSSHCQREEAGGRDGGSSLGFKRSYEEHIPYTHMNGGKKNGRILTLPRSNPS
T4 sequence (P08069 31-1367): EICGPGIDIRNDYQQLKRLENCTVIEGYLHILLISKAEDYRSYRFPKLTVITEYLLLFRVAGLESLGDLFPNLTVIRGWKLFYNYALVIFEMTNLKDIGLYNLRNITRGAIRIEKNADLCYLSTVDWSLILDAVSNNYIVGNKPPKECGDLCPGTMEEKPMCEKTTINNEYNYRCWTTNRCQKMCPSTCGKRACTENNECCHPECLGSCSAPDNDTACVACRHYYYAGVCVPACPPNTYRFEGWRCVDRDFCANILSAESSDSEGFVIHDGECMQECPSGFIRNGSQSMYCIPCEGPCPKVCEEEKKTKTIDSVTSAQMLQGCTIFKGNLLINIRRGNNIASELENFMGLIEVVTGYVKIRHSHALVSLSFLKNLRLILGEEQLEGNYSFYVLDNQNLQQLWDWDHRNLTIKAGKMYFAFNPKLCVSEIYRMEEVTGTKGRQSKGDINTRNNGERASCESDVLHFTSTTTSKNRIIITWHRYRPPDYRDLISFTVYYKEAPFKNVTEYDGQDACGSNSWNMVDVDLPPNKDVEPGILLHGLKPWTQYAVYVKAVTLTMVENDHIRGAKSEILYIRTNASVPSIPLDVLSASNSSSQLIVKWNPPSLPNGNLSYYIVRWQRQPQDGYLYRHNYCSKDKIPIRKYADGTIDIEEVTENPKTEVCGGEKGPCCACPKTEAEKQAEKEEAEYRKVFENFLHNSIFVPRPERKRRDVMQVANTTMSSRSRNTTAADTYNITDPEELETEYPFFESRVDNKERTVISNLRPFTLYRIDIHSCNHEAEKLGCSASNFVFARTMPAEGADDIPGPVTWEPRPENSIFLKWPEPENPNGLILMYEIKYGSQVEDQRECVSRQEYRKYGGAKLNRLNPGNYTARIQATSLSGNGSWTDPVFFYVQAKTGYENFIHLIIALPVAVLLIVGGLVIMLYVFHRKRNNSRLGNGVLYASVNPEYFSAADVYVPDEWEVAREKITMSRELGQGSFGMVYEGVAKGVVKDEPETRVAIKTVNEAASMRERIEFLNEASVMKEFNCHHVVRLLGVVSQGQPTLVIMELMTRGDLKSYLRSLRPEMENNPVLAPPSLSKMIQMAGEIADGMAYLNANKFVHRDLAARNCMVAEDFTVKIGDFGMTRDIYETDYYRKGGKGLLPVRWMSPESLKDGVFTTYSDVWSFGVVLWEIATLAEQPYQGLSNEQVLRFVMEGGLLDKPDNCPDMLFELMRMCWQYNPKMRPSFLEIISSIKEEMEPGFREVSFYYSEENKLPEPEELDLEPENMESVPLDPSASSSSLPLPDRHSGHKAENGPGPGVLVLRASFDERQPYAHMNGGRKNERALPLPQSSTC
T1 sequence (P00533 25-1210): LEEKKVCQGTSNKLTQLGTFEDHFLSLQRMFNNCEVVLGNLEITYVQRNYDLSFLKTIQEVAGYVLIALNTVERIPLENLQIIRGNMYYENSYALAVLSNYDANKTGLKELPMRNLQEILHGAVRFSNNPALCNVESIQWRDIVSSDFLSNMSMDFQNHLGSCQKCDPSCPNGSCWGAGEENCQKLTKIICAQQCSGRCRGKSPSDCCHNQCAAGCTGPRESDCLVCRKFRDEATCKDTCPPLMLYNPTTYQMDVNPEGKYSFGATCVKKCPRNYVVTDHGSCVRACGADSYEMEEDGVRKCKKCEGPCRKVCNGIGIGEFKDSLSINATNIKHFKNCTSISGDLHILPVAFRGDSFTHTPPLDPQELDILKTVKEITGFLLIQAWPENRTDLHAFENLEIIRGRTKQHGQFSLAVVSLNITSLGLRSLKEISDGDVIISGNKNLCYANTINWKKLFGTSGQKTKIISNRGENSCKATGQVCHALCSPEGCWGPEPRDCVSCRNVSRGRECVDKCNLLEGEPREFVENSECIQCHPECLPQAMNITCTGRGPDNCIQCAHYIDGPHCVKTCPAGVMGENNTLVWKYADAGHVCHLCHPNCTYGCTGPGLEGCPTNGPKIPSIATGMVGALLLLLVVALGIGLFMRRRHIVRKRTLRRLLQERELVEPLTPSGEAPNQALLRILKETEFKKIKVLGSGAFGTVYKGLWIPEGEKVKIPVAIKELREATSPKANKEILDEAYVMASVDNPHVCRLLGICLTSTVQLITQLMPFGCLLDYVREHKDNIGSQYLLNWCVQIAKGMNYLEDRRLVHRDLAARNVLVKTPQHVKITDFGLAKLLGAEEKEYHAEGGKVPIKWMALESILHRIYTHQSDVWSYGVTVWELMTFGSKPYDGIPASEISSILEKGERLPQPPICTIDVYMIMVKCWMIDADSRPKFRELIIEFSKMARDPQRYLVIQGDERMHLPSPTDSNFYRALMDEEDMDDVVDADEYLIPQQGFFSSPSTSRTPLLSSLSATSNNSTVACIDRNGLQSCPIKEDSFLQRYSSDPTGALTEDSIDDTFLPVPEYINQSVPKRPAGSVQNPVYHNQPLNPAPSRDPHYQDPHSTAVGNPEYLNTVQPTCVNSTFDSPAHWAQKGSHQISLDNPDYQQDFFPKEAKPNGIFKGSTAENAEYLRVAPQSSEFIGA
T8 sequence (P09619 33-1106): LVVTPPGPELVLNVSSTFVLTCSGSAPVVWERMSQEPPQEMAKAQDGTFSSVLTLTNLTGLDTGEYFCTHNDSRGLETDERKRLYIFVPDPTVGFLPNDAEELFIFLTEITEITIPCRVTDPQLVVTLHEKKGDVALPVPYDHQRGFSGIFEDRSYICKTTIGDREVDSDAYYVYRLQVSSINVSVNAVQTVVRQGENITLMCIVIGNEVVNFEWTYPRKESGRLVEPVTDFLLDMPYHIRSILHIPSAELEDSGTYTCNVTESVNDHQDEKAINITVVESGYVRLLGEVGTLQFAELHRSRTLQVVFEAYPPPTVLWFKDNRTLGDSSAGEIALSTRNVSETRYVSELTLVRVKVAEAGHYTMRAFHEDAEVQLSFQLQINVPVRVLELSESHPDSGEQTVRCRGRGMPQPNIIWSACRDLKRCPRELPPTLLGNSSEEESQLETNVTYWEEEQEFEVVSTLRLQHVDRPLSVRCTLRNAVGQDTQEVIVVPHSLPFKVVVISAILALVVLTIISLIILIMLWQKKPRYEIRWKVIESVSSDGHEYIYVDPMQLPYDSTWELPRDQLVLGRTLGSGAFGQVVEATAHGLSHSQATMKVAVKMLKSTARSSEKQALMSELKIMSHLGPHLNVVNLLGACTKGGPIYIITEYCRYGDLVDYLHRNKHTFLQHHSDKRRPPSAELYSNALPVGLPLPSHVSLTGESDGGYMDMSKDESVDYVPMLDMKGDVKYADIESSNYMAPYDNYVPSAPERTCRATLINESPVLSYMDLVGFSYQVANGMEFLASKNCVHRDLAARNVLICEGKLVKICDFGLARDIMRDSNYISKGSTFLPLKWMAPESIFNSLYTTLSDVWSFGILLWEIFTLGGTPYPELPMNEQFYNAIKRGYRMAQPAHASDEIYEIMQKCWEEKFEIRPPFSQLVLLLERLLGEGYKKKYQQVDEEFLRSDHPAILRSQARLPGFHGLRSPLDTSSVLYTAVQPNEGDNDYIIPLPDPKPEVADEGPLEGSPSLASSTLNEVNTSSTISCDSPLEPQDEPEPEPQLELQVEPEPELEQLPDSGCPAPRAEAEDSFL

melting point [°C] | SMILES | IC50 [1] [µM] | IC50 [2] [µM] | IC50 [3] [µM] | IC50 [4] [µM] | IC50 [5] [µM] | also measured
233.9 to 234.5 | O=C(CSc1nnc(Cc2c[nH]c3ccccc23)o1)Nc1ncc([N+](=O)[O-])s1 [Compound 2h, 2-[(5-((1H-Indol-3-yl)methyl)-1,3,4-oxadiazol-2-yl)thio]-N-[5-nitrothiazol-2-yl]acetamide] | > 100 | > 100 | – | – | > 100 | –
240.6 to 241.5 | O=C(CSc1nnc(Cc2c[nH]c3ccccc23)o1)Nc1nc2ccc(Br)cc2s1 [Compound 2c, 2-[(5-((1H-Indol-3-yl)methyl)-1,3,4-oxadiazol-2-yl)thio]-N-(6-bromobenzothiazol-2-yl)acetamide] | 24.9 ± 1.96 | 48.5 ± 5.78 | – | – | > 100 | –
177.4 to 178.2 | O=C(CSc1nnc(Cc2c[nH]c3ccccc23)o1)Nc1nccs1 [Compound 2g, 2-[(5-((1H-Indol-3-yl)methyl)-1,3,4-oxadiazol-2-yl)thio]-N-(thiazol-2-yl)acetamide] | > 100 | > 100 | – | – | > 100 | –
158 to 158.6 | CCOC(=O)Cc1csc(NC(=O)CSc2nnc(Cc3c[nH]c4ccccc34)o2)n1 [Compound 2i, 2-[(5-((1H-Indol-3-yl)methyl)-1,3,4-oxadiazol-2-yl)thio]-N-[4-(ethoxycarbonylmethyl)thiazol-2-yl]acetamide] | 71.9 ± 10.3 | 95.9 ± 12.4 | – | – | > 100 | –

Continued, compound first:

SMILES | melting point [°C] | IC50 [1] [µM] | IC50 [2] [µM] | IC50 [3] [µM] | IC50 [4] [µM] | IC50 [5] [µM] | also measured
C#Cc1cccc(Nc2ncnc3cc(OCCOC)c(OCCOC)cc23)c1 [Erlotinib, reference compound] | – | 19.4 ± 2.38 | 23.8 ± 4.17 | 45.7 ± 8.88 | 9.47 ± 2.15 | – | apoptosis (apoptotic cells) (HCT116 cells): 7.42%; late apoptotic or necrotic effects (HCT116 cells): 10.45%
O=C(CSc1nnc(Cc2c[nH]c3ccccc23)o1)Nc1nc2ccc([N+](=O)[O-])cc2s1 [Compound 2f, 2-[(5-((1H-Indol-3-yl)methyl)-1,3,4-oxadiazol-2-yl)thio]-N-(6-nitrobenzothiazol-2-yl)acetamide] | – | > 100 | > 100 | – | – | > 100 | –
O=C(CSc1nnc(Cc2c[nH]c3ccccc23)o1)Nc1nc2ccc(Cl)cc2s1 [Compound 2b, 2-[(5-((1H-Indol-3-yl)methyl)-1,3,4-oxadiazol-2-yl)thio]-N-(6-chlorobenzothiazol-2-yl)acetamide] | – | 60.7 ± 9.48 | 37.6 ± 5.62 | – | – | > 100 | –
O=C(CSc1nnc(Cc2c[nH]c3ccccc23)o1)Nc1nc2ccccc2s1 [Compound 2a, 2-[(5-((1H-Indol-3-yl)methyl)-1,3,4-oxadiazol-2-yl)thio]-N-(benzothiazol-2-yl)acetamide] | – | 40.4 ± 7.74 | 65.1 ± 10.1 | > 300 | 17.7 ± 3.59 | 26.2 ± 1.75 | –
Cc1ccc2nc(NC(=O)CSc3nnc(Cc4c[nH]c5ccccc45)o3)sc2c1 [Compound 2d, 2-[(5-((1H-Indol-3-yl)methyl)-1,3,4-oxadiazol-2-yl)thio]-N-(6-methylbenzothiazol-2-yl)acetamide] | – | 36.9 ± 5.43 | 30.2 ± 3.12 | > 300 | 21.1 ± 1.85 | 18.2 ± 1.19 | –
CCOc1ccc2nc(NC(=O)CSc3nnc(Cc4c[nH]c5ccccc45)o3)sc2c1 [Compound 2e, 2-[(5-((1H-Indol-3-yl)methyl)-1,3,4-oxadiazol-2-yl)thio]-N-(6-ethoxybenzothiazol-2-yl)acetamide] | – | 9.62 ± 1.14 | – | > 300 | 6.45 ± 1.02 | 6.43 ± 0.72 | apoptosis (apoptotic cells) (HCT116 cells): 28.35%; late apoptotic or necrotic effects (HCT116 cells): 9.81%; IC50 (EGFR): 2.8 ± 0.52 µM; IC50 (HER2): > 30 µM; IC50 (HER4): 8.22 ± 1.64 µM; IC50 (IGF1R): > 30 µM; IC50 (InsR): 29.1 ± 4.66 µM; IC50 (KDR): > 30 µM; IC50 (PDGFRα): > 30 µM; IC50 (PDGFRβ): 6.16 ± 1.58 µM; IC50 (COX-1): 73.5 ± 2.12 µM
